Laboratory results as given in patent EP1227083A1, “3-AMINOPIPERIDINE DERIVATIVES AS INTEGRIN $g(a)v$g(b)3 ANTAGONISTS” (Meiji Seika Kaisha, Ltd., priority 1999, dated 2001).
Several values for one entry are separate records, joined by “and”; a condition that tells them apart may be missing. Identical values can stand only once. Like-named read-outs stand apart in the source and are kept apart here.

Tests used:
[1] = target: GP IIb/IIIa (Homo sapiens, UniProt P05106+P08514); assay: GP IIb/IIIa antagonistic activity (method of Pharmacological Test 2 in WO 94/21599); assay type: binding; conditions: read-out: IC50 (GP IIb/IIIa antagonistic activity)
Method: GP IIb/IIIa antagonistic activity was measured for compounds according to the present invention. The measurement of the GP IIb/IIIa antagonistic activity was carried out according to the method described in Pharmacological Test 2 in WO 94/21599.

[2] = target: T1, Integrin αvβ3 (vitronectin receptor) (Homo sapiens, UniProt P05106+P06756); assay: αvβ3 Binding assay (vitronectin-vitronectin receptor binding assay)
T1 construct: a vitronectin receptor (protein content: 118 µg/ml) purified from the human placenta; from tissue; host or cells: human placenta
Method: Pharmacological Test Example 1: αvβ3 Binding assay
Integrin αvβ3 antagonistic activity of compounds according to the present invention was measured in a vitronectin-vitronectin receptor binding assay system in accordance with the method of Kouns et al. (W. C. Kouns, D. Kirchhofer, P. Hadvary, A. Edenhofer, T. Weller, G. Pfenninger, H. R. Baumgartner, L. K. Jennings and B. Steiner, Blood, 80, 2539-2547 (1992)).
Specifically, a vitronectin receptor (protein content: 118 µg/ml) purified from the human placenta in accordance with the method of Pytela et al. (R. Pytela, M. D. Pierschbacher, S. Argraves, S. Suzuki, and E. Ruoslahti, Method in Enzymology, 144, 475-489 (1987)) was diluted 50 times with TBS (20 mM Tris-HCl, 150 mM NaCl, 1 mM CaCl2, 1 mM MgCl2, pH 7.4), and distributed and coated on wells (50 µl/well) of a plate (Maxisorp, Nunc, 96 well Immuno Plate). The plate was then allowed to stand at 4°C for one day, washed twice with TBS (200 µl/well), and then subjected to blocking with TBS (150 µl/well) containing 1% bovine serum albumin (SIGMA) at 4°C overnight. After washing twice with TBS (200 µl/well), 50 µl of vitronectin (CALBIOCHEM) adjusted to 0.2 µg/ml by the addition of TBS (TBS-Tween) containing 0.01% Tween-20 was mixed with 50 µl of each test compound adjusted to each concentration in wells, and a reaction was allowed to proceed at room temperature for 4 hr. After the completion of the reaction, the wells were washed three times with TBS-Tween. A solution prepared by diluting anti-vitronectin rabbit antiserum (CHEMICON) 500 times with TBS-Tween was added as a primary antibody in an amount of 50 µl/well, and a reaction was allowed to proceed at room temperature for 1.5 hr. After washing three times with 200 µl/well of TBS-Tween, a peroxidase (POD)-labeled anti-rabbit IgG antibody solution (CAPPEL) diluted 500 times with TBS-Tween was added as a secondary antibody in an amount of 50 µl/well, and a reaction was allowed to proceed at room temperature for 1.5 hr. After washing three times with TBS-Tween (200 µl/well), ABTS (2,2'-azino-bis(3-ethylbenzthiazoline-6-sulfonic acid), SIGMA) was adjusted to 1 mg/ml by the addition of a ten-fold diluted POD-buffer (ZYMED), and was added in an amount of 50 µl/well, and a reaction was allowed to proceed for 5 to 10 min. A 0.1 M citric acid buffer (pH 4.3) containing 0.05% NaN3 was added in an amount of 50 µl/well to stop the reaction, followed by the measurement of the absorbance at 415 nm with a microplate reader (MTP 32, Corona Electric) (reference: 675 nm). The total binding was defined as the absorbance after a reaction using 50 µl of TBS-Tween instead of the test compound, and the non-specific binding (100% inhibition) was defined as the absorbance after a reaction using 50 µl of TBS-Tween containing 2 x 10^-3 M RGDS. The inhibition was calculated by the following equation: Inhibition (%) = 100-((absorbance in the presence of test compound - non-specific binding))/((total binding - non-specific binding))× 100 [formula]
IC50 was determined from a primary regression line of the logarithm of each concentration of the test compound and the logarithm of (100 - inhibition)/inhibition.

[3] = Oral absorption in rats; assay type: in vivo; conditions: data not shown
[4] = test system: human platelet aggregation; assay: Human platelet aggregation inhibitory activity (method of Pharmacological Test 1 in WO 94/21599); assay type: cell-based
Method: Human platelet aggregation inhibitory activity was measured for compounds according to the present invention. The measurement of the human platelet aggregation inhibitory activity was carried out according to the method described in Pharmacological Test 1 in WO 94/21599.

[5] = test system: human vascular smooth muscle cells; assay: Inhibitory activity against adhesion of human vascular smooth muscle cells to vitronectin; assay type: cell-based; conditions: immobilized human vitronectin
Method: Pharmacological Test Example 3: Inhibitory activity against adhesion of human vascular smooth muscle cells to vitronectin
The adhesion of human vascular smooth muscle cells to immobilized human vitronectin was measured in accordance with the method of Liaw et al. (Liaw L, Almeida M, Hart CE, Schwartz SM, and Giachelli CM, Circulation Research, 74 (2), 214-224 (1994)).
A Dulbecco's phosphate buffer (Dulbecco's PBS(-), Nissui Pharmaceutical Co., Ltd.) solution of human plasma-derived vitronectin (CALBIOCHEM) adjusted to a concentration of 4 µg/ml was first added to wells (50 µl/well) of a microplate (Maxisorp, Nunc), and a reaction for immobilization was allowed to proceed at 4°C overnight. […]
Next, 50 µl of a Dulbecco's modified Eagle's basal medium containing 0.1% of bovine serum albumin with a medicament added thereto was added to the wells of the human vitronectin-coated assay microplate, followed by pre-cultivation under 5% carbon dioxide at 37°C for 10 min. […] The absorbance of the microplate thus obtained was measured at 595 nm. […] The inhibition was calculated by the following equation. IC50 was determined from a primary regression line of the logarithm of each concentration of the test compound and the logarithm of (100 - inhibition)/inhibition. […]

[6] = read-out: IC50 (integrin αvβ3 antagonistic activity); vitronectin binding to vitronectin receptor purified from the human placenta
[7] = vitronectin binding to vitronectin receptor purified from the human placenta; read-out: IC50 (integrin αvβ3 antagonistic activity)

T1 sequence (P06756 31-889 limits assumed): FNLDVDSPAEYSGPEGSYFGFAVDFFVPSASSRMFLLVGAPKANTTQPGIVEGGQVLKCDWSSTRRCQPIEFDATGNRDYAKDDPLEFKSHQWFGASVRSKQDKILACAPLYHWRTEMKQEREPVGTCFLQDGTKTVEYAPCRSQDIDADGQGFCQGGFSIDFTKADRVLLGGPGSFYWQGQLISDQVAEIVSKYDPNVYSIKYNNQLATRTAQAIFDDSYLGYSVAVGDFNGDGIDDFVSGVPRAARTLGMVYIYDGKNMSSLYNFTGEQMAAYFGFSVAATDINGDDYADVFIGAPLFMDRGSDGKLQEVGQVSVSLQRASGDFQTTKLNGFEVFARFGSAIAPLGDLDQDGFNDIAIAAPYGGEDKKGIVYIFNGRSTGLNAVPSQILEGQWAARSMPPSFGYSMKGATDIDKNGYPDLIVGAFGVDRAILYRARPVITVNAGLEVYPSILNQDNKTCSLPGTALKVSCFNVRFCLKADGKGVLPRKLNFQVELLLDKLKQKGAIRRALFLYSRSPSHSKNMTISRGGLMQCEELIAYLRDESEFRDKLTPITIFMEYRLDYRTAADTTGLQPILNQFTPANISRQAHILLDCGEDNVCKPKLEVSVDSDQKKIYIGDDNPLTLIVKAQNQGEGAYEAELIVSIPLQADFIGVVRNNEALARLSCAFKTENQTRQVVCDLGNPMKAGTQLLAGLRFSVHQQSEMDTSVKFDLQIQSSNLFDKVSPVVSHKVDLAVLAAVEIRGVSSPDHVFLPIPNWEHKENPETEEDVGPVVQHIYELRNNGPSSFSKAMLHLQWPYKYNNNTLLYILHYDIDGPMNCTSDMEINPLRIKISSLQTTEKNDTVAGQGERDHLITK
T1 sequence (P06756 891-1048 partner limits assumed): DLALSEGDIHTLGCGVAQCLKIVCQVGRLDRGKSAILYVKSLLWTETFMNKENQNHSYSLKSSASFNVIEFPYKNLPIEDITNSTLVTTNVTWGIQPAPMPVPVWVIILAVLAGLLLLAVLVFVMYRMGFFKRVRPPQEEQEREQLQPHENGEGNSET
T1 sequence (P05106 27-788): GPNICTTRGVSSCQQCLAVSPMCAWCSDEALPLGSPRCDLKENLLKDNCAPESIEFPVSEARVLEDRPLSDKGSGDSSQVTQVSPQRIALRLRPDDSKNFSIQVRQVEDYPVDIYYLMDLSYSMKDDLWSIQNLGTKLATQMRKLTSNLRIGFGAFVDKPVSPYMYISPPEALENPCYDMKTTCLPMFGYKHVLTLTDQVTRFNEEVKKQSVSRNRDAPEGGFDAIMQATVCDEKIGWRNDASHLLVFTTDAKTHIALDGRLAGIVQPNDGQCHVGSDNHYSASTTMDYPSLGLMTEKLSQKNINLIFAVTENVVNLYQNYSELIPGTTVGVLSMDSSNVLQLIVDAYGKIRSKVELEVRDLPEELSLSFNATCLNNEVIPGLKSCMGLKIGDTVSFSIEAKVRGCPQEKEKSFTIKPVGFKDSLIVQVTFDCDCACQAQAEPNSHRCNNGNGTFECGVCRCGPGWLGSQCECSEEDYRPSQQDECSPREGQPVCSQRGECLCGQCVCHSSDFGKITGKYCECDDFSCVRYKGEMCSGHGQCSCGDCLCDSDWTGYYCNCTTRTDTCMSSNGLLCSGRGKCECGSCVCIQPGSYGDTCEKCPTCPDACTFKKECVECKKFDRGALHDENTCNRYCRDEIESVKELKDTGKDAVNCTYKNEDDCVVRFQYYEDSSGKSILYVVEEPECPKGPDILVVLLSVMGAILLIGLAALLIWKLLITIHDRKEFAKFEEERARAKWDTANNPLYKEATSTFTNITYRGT
Sequence of GP IIb/IIIa (P08514 32-887 limits assumed): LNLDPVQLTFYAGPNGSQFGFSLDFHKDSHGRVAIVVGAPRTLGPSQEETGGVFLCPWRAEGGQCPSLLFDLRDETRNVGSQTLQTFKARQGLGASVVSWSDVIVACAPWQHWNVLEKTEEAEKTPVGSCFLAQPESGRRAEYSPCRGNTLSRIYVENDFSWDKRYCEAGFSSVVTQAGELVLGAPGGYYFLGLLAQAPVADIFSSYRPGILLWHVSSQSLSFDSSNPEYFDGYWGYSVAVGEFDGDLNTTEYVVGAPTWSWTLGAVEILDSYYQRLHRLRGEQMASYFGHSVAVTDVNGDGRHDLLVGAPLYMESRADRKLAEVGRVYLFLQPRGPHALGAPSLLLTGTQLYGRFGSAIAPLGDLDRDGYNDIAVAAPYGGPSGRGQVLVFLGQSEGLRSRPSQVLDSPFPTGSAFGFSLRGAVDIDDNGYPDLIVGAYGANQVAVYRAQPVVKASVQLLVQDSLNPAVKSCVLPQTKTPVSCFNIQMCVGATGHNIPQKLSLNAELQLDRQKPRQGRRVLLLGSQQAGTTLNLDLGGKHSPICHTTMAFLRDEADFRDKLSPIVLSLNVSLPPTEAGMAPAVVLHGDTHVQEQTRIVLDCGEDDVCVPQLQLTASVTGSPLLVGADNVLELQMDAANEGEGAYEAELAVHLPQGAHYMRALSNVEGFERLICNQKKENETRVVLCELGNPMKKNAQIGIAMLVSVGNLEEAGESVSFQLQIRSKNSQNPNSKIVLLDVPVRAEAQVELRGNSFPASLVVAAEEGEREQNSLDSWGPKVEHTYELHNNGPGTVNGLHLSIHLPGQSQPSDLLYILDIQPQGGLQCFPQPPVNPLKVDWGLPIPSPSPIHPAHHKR
Sequence of GP IIb/IIIa (P08514 891-1039 partner limits assumed): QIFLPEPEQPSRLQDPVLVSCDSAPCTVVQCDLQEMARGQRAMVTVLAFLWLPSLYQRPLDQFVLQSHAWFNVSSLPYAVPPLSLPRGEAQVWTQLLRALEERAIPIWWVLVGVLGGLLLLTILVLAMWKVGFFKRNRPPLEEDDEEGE
Sequence of GP IIb/IIIa (P05106 27-788): as the sequence (P05106 27-788) above

Row | SMILES | IC50 [1] | also measured
1 | O=C(NC[C@H](NS(=O)(=O)c1ccccc1)C(=O)O)c1ccc(N2CCCC(Nc3ncccn3)C2)cc1 (stereo partly drawn) [Example 2, (2S)-Benzenesulfonylamino-3-[4-{3-(pyrimidin-2-ylamino)piperidin-1-yl}benzoylamino]propionic acid] | ≤ 1.1 nM | –
2 | O=C(NC[C@H](NS(=O)(=O)c1ccccc1)C(=O)O)c1ccc(N2CCCC(NC3=NCCCN3)C2)cc1 (stereo partly drawn) [Example 3, (2S)-Benzenesulfonylamino-3-[4-{3-(1,4,5,6-tetrahydropyrimidin-2-ylamino)piperidin-1-yl}benzoylamino]propionic acid] | ≤ 1.1 nM | IC50 [2, 6]: ≤ 1 nM
3 | O=C(NC[C@H](NS(=O)(=O)c1ccccc1)C(=O)O)c1ccc(N2CCC[C@H](Nc3ncccn3)C2)c(F)c1 [Example 5, (2S)-Benzenesulfonylamino-3-[3-fluoro-4-{(3S)-(pyrimidin-2-ylamino)piperidin-1-yl}benzoylamino]-propionic acid] | – | oral absorption [3]: had oral absorption
4 | O=C(NC[C@H](NS(=O)(=O)c1ccccc1)C(=O)O)c1ccc(N2CCC[C@H](NC3=NCCCN3)C2)c(F)c1 [Example 6, (2S)-Benzenesulfonylamino-3-[3-fluoro-4-{(3S)-(1,4,5,6-tetrahydropyrimidin-2-ylamino)piperidin-1-yl}benzoylamino]propionic acid] | ≤ 1.1 nM and 1.1 nM | –
5 | O=C(NC[C@H](NS(=O)(=O)c1ccccc1)C(=O)O)c1ccc(N2CCC[C@@H](NC3=NCCCN3)C2)c(F)c1 [Example 9, (2S)-Benzenesulfonylamino-3-[3-fluoro-4-{(3R)-(1,4,5,6-tetrahydropyrimidin-2-ylamino)piperidin1-yl}benzoylamino]propionic acid] | ≤ 1.1 nM | –
6 | O=C(NC[C@H](NS(=O)(=O)c1ccccc1)C(=O)O)c1ccc(N2CCC[C@H](NC3=NCCCN3)C2)c(F)c1F [Example 19, (2S)-Benzenesulfonylamino-3-[2,3-difluoro-4-{(3S)-(1,4,5,6-tetrahydropyrimidin-2-ylamino)piperidin-1-yl}benzoylamino]propionic acid] | ≤ 1.1 nM | IC50 [2, 6]: ≤ 1 nM
7 | O=C(NC[C@H](NS(=O)(=O)c1ccccc1)C(=O)O)c1ccc(N2CCC[C@H](NC3=NCCCN3)C2)c(Cl)c1 [Example 22, (2S)-Benzenesulfonylamino-3-[3-chloro-4-{(3S)-(1,4,5,6-tetrahydropyrimidin-2-ylamino)piperidin-1-yl}benzoylamino]propionic acid] | ≤ 1.1 nM | –
8 | O=C(NC[C@H](NS(=O)(=O)c1ccccc1)C(=O)O)c1ccc(N2CCC[C@H](N=C3NCCCN3)C2)cc1 [Example 25, (2S)-Benzenesulfonylamino-3-[4-{(3S)-(1,4,5,6-tetrahydropyrimidin-2-ylamino)piperidin-1-yl}benzoylamino]propionic acid] | ≤ 1.1 nM | IC50 [4]: 56 nM; IC50 [2, 7]: ≤ 1 nM
9 | O=C(NC[C@H](NS(=O)(=O)c1ccccc1)C(=O)O)c1ccc(N2CCC[C@H](Nc3ccccn3)C2)cc1 [Example 27, (2S) -Benzenesulfonylamino-3-[4-{(3S)-(pyridin-2-ylamino)piperidin-1-yl}-benzoylamino]propionic acid] | ≤ 1.1 nM | IC50 [2, 6]: ≤ 1 nM
10 | O=C(NC[C@H](NS(=O)(=O)c1ccccc1)C(=O)O)c1ccc(N2CCC[C@H](N=C3NCCCN3)C2)cc1F [Example 30, (2S)-Benzenesulfonylamino-3-[2-fluoro-4-{(3S)-(1,4,5,6-tetrahydropyrimidin-2-ylamino)piperidin-1-yl}benzoylamino]propionic acid] | ≤ 1.1 nM | IC50 [5]: 13 nM; IC50 [2, 7]: ≤ 1 nM
11 | O=C(NC[C@H](NS(=O)(=O)c1cccs1)C(=O)O)c1ccc(N2CCC[C@H](N=C3NCCCN3)C2)cc1 [Example 44, 3-[4-{(3S)-(1,4,5,6-Tetrahydropyrimidin-2-ylamino)piperidin-1-yl}benzoylamino]-(2S)-{(thiophene-2-sulfonyl)amino}propionic acid] | ≤ 1.1 nM | IC50 [2, 7]: ≤ 1 nM
